Values of other authors, collected in patent US20120122237A1, “HOMOGENEOUS NONCOMPETITIVE DETECTION OF POST TRANSLATIONAL MODIFICATIONS FOR USE IN HIGH THROUGHPUT ASSAYS” (priority 2010, published 2012).

Tests used:
[1] = test system: Monoclonal Antibody for Atrazine
[2] = test system: Monoclonal Antibody for Atrazine; conditions: competitive ELISA
[3] = test system: Polyclonal antibody for 3-PBA
[4] = test system: Polyclonal antibody for 3-PBA; conditions: competitive ELISA

CCNc1nc(Cl)nc(NC(C)(C)C#N)n1 [cyanazine]
Crossreactivity (%) PHAIA [1]: 0% | Crossreactivity (%) ELISA [2]: 91%

O=C(O)c1cccc(Oc2ccccc2)c1 [3-PBA, 3-phenoxybenzoic acid]
Crossreactivity (%) PHAIA [3]: 100% | Crossreactivity (%) ELISA [4]: 100%

CCNc1nc(Cl)nc(NCC)n1 [simazine]
Crossreactivity (%) PHAIA [1]: 0% | Crossreactivity (%) ELISA [2]: 48%

O=Cc1cccc(Oc2ccccc2)c1 [3-pheonoxy aldehyde]
Crossreactivity (%) PHAIA [3]: 3% | Crossreactivity (%) ELISA [4]: 10%

CCNc1nc(Cl)nc(NC(C)C)n1 [atrazine]
Crossreactivity (%) PHAIA [1]: 100% | Crossreactivity (%) ELISA [2]: 100%

CC(C)Nc1nc(Cl)nc(NC(C)C)n1 [propazine]
Crossreactivity (%) PHAIA [1]: 144% | Crossreactivity (%) ELISA [2]: 116%

4-hydroxy 3-PBA
Crossreactivity (%) PHAIA [3]: 0% | Crossreactivity (%) ELISA [4]: 98%
